# Results as given in patent US11364242B2, “Treatment agents for inhibiting HIV and cancer in HIV infected patients” (UNIVERSITY OF MARYLAND, BALTIMORE, priority 2015, dated 2022).
# Like-named read-outs stand apart in the source and are kept apart here.
# Assays:
# HIV-1 = assay: HIV production in PHA activated PBMCs, p24 ELISA day 7; settings: p24 day 7
# Experimental: PHA activated PBMCs were infected with HIV-1 for 2 hours. Infected cells were washed to remove non-adsorbed virus, and plated in culture medium containing IL-2 and various dilutions of Torin-2. Cultures were evaluated for HIV production by measuring HIV p24 levels in the culture supernatants by ELISA (FIG. 9A). Also on day 7, cell viability was measured by MTT assays (FIG. 9B) according to an embodiment.
# PHA activated PBMCs were infected with HIV-1 for 2 hours. Infected cells were washed to remove non-adsorbed virus, and plated in culture medium containing IL-2 and various dilutions of Torin-2. On day 3, fresh medium with fresh drug was added to the cultures. On day 7, cultures were evaluated for HIV production by measuring HIV p24 levels in the culture supernatants by ELISA (FIG. 9A). Also on day 7, cell viability was measured by MTT assays (FIG. 9B)/
# HIV-1 BaL = assay: Antiretroviral potency with and without INK128 in PBLs infected with HIV BaL; assay type: cell-based; settings: Human immunodeficiency virus 1, BAL, PBMC, PBMCs, two donors
# Experimental: PBLs were separated from buffy coats by density centrifugation over Ficoll-Hypaque (Sigma™), and activated by culture in the presence of 1 μg/mL anti-human CD3 antibody (clone x35, Fisher Scientific™) and 2 μg/mL anti-human CD28 antibody (Clone CD28.6, eBioscience™) for 3 days. Activated cells were infected by incubation with virus at a multiplicity of infection (MOI) of 0.001 for 2 hours. Infected cells were washed three times with PBS and cultured in 5% CO2 at 37° C., in RPMI/10% FBS supplemented with 100 units/mL IL-2 (Roche™) and antiviral drugs, in 96-well flat-bottom plates at a density of […] PBLs per 200 μL. Following 3 d of culture, half of the medium was replaced with fresh medium containing IL-2 and antiviral drugs. On day 7, viral replication was measured by p24 ELISA (Coulter) in culture supernatants and cell viability was measured by MTT assays.
# Available ARTs target the HIV lifecycle steps of entry, reverse transcription, integration, and maturation. […] In addition, by targeting virus transcription, INK128 could have favorable interactions with inhibitors of reverse transcription (RTIs), integration (Hs), and protease (PIs). […] We conducted these assays in activated PBLs infected with R5 HIV BaL and treated with various dilutions of Maraviroc (CCR5 antagonist), Efavirenz (RTI), Raltegravir (II), and Indinavir (PI). INK128 was used at low concentrations (<EC50) to better detect changes in ART potency (Table 7).
# Prism software. Data are from 2 experiments, each with a different donor.
# [1] = +3 nM INK128, read-out: EC50 (geometric mean)
# [2] = +10 nM INK128, read-out: EC50 (geometric mean)
# [3] = No INK128, read-out: EC50 (geometric mean)
SMILES,EC50 (HIV-1 BaL; [1]) [nM],EC50 (HIV-1 BaL; [2]) [nM],EC50 (HIV-1 BaL; [3]) [nM],also measured
"Nc1ccc(-c2ccc3ncc4ccc(=O)n(-c5cccc(C(F)(F)F)c5)c4c3c2)cn1 [Torin-2, 9-(6-Amino-3-pyridinyl)-1-[3-(trifluoromethyl)phenyl]-benzo[h]-1,6-naphthyridin-2(1H)-one]",–,–,–,cell toxicity (PBMCs): absence of cell toxicity; HIV inhibition in vitro (HIV-1): inhibits HIV in vitro
Cc1nnc(C(=O)NC(C)(C)c2nc(C(=O)NCc3ccc(F)cc3)c(O)c(=O)n2C)o1 [RAL],–,–,–,"EC50 (HIV-1 BaL; read-out: EC50 (geometric mean), +3 nM INK128): 0.81 nM; EC50 (HIV-1 BaL; read-out: EC50 (geometric mean), +10 nM INK128): 0.57 nM; EC50 (HIV-1 BaL; read-out: EC50 (geometric mean), No INK128): 0.65 nM"
O=C1Nc2ccc(Cl)cc2[C@@](C#CC2CC2)(C(F)(F)F)O1 [EFV],0.51,0.51,0.52,–
CC(C)(C)NC(=O)[C@@H]1CN(Cc2cccnc2)CCN1C[C@@H](O)C[C@@H](Cc1ccccc1)C(=O)N[C@H]1c2ccccc2C[C@H]1O [IND],3.14,3,3.84,–
